Source: patent US5750648A, “Retroviral protease inhibitors and combinations thereof” (G.D. Searle & Co., priority 1994, dated 1998)
Where a name gives a salt, the structure may show the parent alone.

Columns and labels:
HIV protease = HIV protease (Human immunodeficiency virus type 1 group M subtype B, UniProt P04585); experiment: HIV protease enzyme assay (fluorescent substrate 2-aminobenzoyl-Ile-Nle-Phe(p-NO2)-Gln-ArgNH2); format: biochemical; conditions: for IC50: concentration at which the inhibitor reduces enzyme activity by 50%, enzyme about 12.3 nanomolar, substrate about 80 μM, pH 6.4
Description: The compounds of the present invention are advantageously effective HIV protease inhibitors. Utilizing an enzyme assay as described below, the compounds set forth in the examples herein disclosed inhibited the HIV enzyme. The preferred compounds of the present invention and their calculated IC50 (the concentration at which the inhibitor compound reduces enzyme activity by 50%) values are shown in Table 2.
The enzyme method is as follows. The substrate is 2-aminobenzoyl-Ile-Nle-Phe(p-NO2)-Gln-ArgNH2. The positive control is MVT-101 (Miller, M. et al, Science, 246, 1149 (1989)). The assay buffer is 20 mM sodium phosphate, pH 6.4, 20% glycerol, 1 mM EDTA, 1 mM DTT and 0.1% CHAPS. The substrate is dissolved in DMSO, then diluted 10 fold in assay buffer. Final substrate concentration in the assay is about 80 μM. HIV protease is diluted in the assay buffer to a final enzyme concentration of about 12.3 nanomolar, based on a molecular weight of 10,780.
The final concentration of DMSO is about 14% and the final concentration of glycerol is about 18%. The test compound is dissolved in DMSO and diluted in DMSO to ten times (10×) the test concentration. Ten microliters (10 μL) of the enzyme preparation is added, the materials mixed and then the mixture is incubated at ambient temperature for 15 minutes. The enzyme reaction is initiated by the addition of 40 μL of substrate. The increase in fluorescence is monitored at 4 time points (0, 8, 16 and 24 minutes) at ambient temperature. Each assay is carried out in duplicate wells.

HIV-1 in CEM cells = experiment: CEM cell assay, HIV inhibition in acutely infected cells (MTT); format: cell-based; conditions: Human immunodeficiency virus 1, CCRF-CEM, 168 h; HIV-1 infected CEM cells, 7 days
Method: The effectiveness of selected compounds of the present invention were determined in the above-described enzyme assay and in a CEM cell assay. The HIV inhibition assay method of acutely infected cells is an automated tetrazolium based calorimetric assay essentially that reported by Pauwles et al, J. Virol. Methods 20, 309-321 (1988). Assays were performed in 96-well tissue culture plates. CEM cells, a CD4+ cell line, were grown in RPMI-1640 medium (Gibco) supplemented with a 10% fetal calf serum and were then treated with polybrene (2 μg/ml). An 80 μl volume of medium containing 1×10^4 cells was dispensed into each well of the tissue culture plate. To each well was added a 100 μl volume of test compound dissolved in tissue culture medium (or medium without test compound as a control) to achieve the desired final concentration and the cells were incubated at 37° C. for 1 hour. A frozen culture of HIV-1 was diluted in culture medium to a concentration of […] (TCID50=the dose of virus that infects 50% of cells in tissue culture), and a 20 μL volume of the virus sample (containing 1000 TCID50 of virus) was added to wells containing test compound and to wells containing only medium (infected control cells). Several wells received culture medium without virus (uninfected control cells). Likewise, the intrinsic toxicity of the test compound was determined by adding medium without virus to several wells containing test compound. In summary, the tissue culture plates contained the following experiments: In experiments 2 and 4 the final concentrations of test compounds were 1, 10, 100 and 500 μg/ml. Either azidothymidine (AZT) or dideoxyinosine (ddI) was included as a positive drug control. […] DMSO was added to all control wells at an appropriate concentration. Following the addition of virus, cells were incubated at 37° C. in a humidified, 5% CO2 atmosphere for 7 days. Test compounds could be added on days 0, 2 and 5 if desired. On day 7, post-infection, the cells in each well were resuspended and a 100 μl sample of each cell suspension was removed for assay. A 20 μL volume of a 5 mg/ml solution of 3-(4,5-dimethylthiazol-2-yl)-2,5-diphenyltetrazolium bromide (MTT) was added to each 100 μL cell suspension, and the cells were incubated for 4 hours at […] in a 5% CO2 environment. […] To each sample was added 100 μl of 10% sodium dodecylsulfate in 0.01N HCl to lyse the cells, and samples were incubated overnight. The absorbance at 590 nm was determined for each sample using a Molecular Devices microplate reader. Absorbance values for each set of wells is compared to assess viral control infection, uninfected control cell response as well as test compound by cytotoxicity and antiviral efficacy.

IC50 (HIV protease) | EC50 (HIV-1 in CEM cells) | Compound | inhibition at 10 µM (HIV protease; @ 10 μM, read-out: inhibition of HIV protease (IC50))
14 nM | 0.034 µg/mL | CC(C)CCN(C[C@@H](O)[C@H](Cc1ccccc1)NC(=O)[C@@H](NC(=O)[C@H](C)N(C)C(=O)OCc1ccccc1)C(C)(C)C)C(=O)NC(C)(C)C [Example 13, (2R, 3S)-3-(N-benzyloxycarbonyl-N-methyl-L-alaninyl-L-tert-butylglycinyl)amino-1-[N-isoamyl-N-(tert-butylcarbamoyl)]amino-4-phenyl-2-butanol] | –
2200 nM | – | CC(C)CCN(C[C@@H](O)[C@H](Cc1ccccc1)NC(=O)[C@@H](NC(=O)[C@@H]1CCCN1C(=O)OCc1ccccc1)C(C)(C)C)C(=O)NC(C)(C)C [Example 19, (2R, 3S)-3-(N-benzyloxycarbonyl-L-prolyl-L-tert-butylglycinyl) amino-1-[N-isoamyl-N-(tert-butylcarbamoyl)]amino-4-phenyl-2-butanol] | –
18 nM | 0.059 µg/mL | CN[C@H](C)C(=O)N[C@H](C(=O)N[C@@H](Cc1ccccc1)[C@H](O)CN(CCC(C)C)C(=O)NC(C)(C)C)C(C)(C)C [Example 16, (2R, 3S)-3-(N-methyl-D-alaninyl-L-tert-butylglycinyl)amino-1-[N-isoamyl-N-(tert-butylcarbamoyl)]amino-4-phenyl-2-butanol] | –
9 nM | – | CC(C)CCN(C[C@@H](O)[C@H](Cc1ccccc1)NC(=O)[C@@H](NC(=O)[C@@H]1CCCN1)C(C)(C)C)C(=O)NC(C)(C)C [Example 20, (2R, 3S)-3-(L-prolyl-L-tert-butylglycinyl)amino-1-[N-isoamyl-N-(tert-butylcarbamoyl)]amino-4-phenyl-2-butanol] | –
10 nM | 0.038 µg/mL | CC(C)CCN(C[C@@H](O)[C@H](Cc1ccccc1)NC(=O)[C@@H](NC(=O)CN)C(C)(C)C)C(=O)NC(C)(C)C [Example 18, (2R, 3S)-3-(glycinyl-L-tert-butylglycinyl)amino-1-[N-isoamyl-N-(tert-butylcarbamoyl)]amino-4-phenyl-2-butanol Hydrochloride Salt] | –
70 nM | – | CC(C)CCN(C[C@@H](O)[C@H](Cc1ccccc1)NC(=O)[C@@H](NC(=O)[C@@H](C)N(C)C(=O)OCc1ccccc1)C(C)(C)C)C(=O)NC(C)(C)C [Example 15, (2R, 3S)-3-(N-benzyloxycarbonyl-N-methyl-D-alaninyl-L-tert-butylglycinyl)amino-1-[N-isoamyl-N-(tert-butylcarbamoyl)]amino-4-phenyl-2-butanol] | –
51 nM | – | CC[C@H](C)[C@H](NC(=O)[C@@H]1CCCN1)C(=O)N[C@@H](Cc1ccccc1)[C@H](O)CN(CCC(C)C)C(=O)NC(C)(C)C [Example 25, (2R, 3S)-3-(L-prolyl-L-isoleucinyl)amino-1-[N-isoamyl-N-(tert-butylcarbamoyl)]amino-4-phenyl-2-butanol] | –
370 nM | – | CC[C@H](C)[C@H](NC(=O)[C@@H](C)N(C)C(=O)OCc1ccccc1)C(=O)N[C@@H](Cc1ccccc1)[C@H](O)CN(CCC(C)C)C(=O)NC(C)(C)C [Example 22, (2R, 3S)-3-(N-benzyloxycarbonyl-N-methyl-D-alaninyl-L-isoleucinyl)amino-1-[N-isoamyl-N-(tert-butylcarbamoyl)]amino-4-phenyl-2-butanol] | –
14 nM | – | CNCC(=O)N[C@H](C(=O)N[C@@H](Cc1ccccc1)[C@H](O)CN(CCC(C)C)C(=O)NC(C)(C)C)C(C)(C)SC [5 (Part I), (2R, 3S)-3-(N-methylaminoacetyl-S-methyl-L-penicillaminyl)amido-1-[N-isoamyl-N-(tert-butylcarbamoyl)]amino-4-phenyl-2-butanol] | –

The remaining lines, values behind:

Compound | IC50 (HIV protease) | EC50 (HIV-1 in CEM cells) | inhibition at 10 µM (HIV protease; @ 10 μM, read-out: inhibition of HIV protease (IC50))
CC(C)CCN(C[C@@H](O)[C@H](Cc1ccccc1)NC(=O)[C@@H](NC(=O)[C@@H]1CCCN1C(=O)OC(C)(C)C)C(C)(C)C)C(=O)NC(C)(C)C [Example 21, (2R, 3S)-3-(N-tert-butoxycarbonyl-L-prolyl-L-tert-butylglycinyl) amino-1-[N-isoamyl-N-(tert-butylcarbamoyl)]amino-4-phenyl-2-butanol] | – | – | 61%
CC[C@H](C)[C@H](NC(=O)CN(C)C)C(=O)N[C@@H](Cc1ccccc1)[C@H](O)CN(CCC(C)C)C(=O)NC(C)(C)C [Example 3, (2R,3S)-3-(N,N-dimethylaminoacetyl-L-isoleucinyl)amido-1-[N-isoamyl-N-(tert-butylcarbamoyl)]amino-4-phenyl-2-butanol] | 14 nM | 66 nM | –
CC(C)CCN(C[C@@H](O)[C@H](Cc1ccccc1)NC(=O)[C@@H](NC(=O)CNC(=O)OC(C)(C)C)C(C)(C)C)C(=O)NC(C)(C)C [Example 17, (2R, 3S)-3-(N-tert-butoxycarbonyl-glycinyl-L-tert-butylglycinyl) amino-1-[N-isoamyl-N-(tert-butylcarbamoyl)]amino-4-phenyl-2-butanol] | 10 nM | – | –
CC[C@H](C)[C@H](NC(=O)[C@@H]1CCCN1C(=O)OCc1ccccc1)C(=O)N[C@@H](Cc1ccccc1)[C@H](O)CN(CCC(C)C)C(=O)NC(C)(C)C [Example 24, (2R, 3S)-3-(N-benzyloxycarbonyl-L-prolyl-L-isoleucinyl)amino-1-[N-isoamyl-N-(tert-butylcarbamoyl)]amino-4-phenyl-2-butanol] | 520 nM | – | –
CC[C@H](C)[C@H](NC(=O)[C@@H](C)NC)C(=O)N[C@@H](Cc1ccccc1)[C@H](O)CN(CCC(C)C)C(=O)NC(C)(C)C [Example 23, (2R, 3S)-3-(N-methyl-D-alaninyl-L-isoleucinyl)amino-1-[N-isoamyl-N-(tert-butylcarbamoyl)]amino-4-phenyl-2-butanol] | 79 nM | – | –
CN[C@@H](C)C(=O)N[C@H](C(=O)N[C@@H](Cc1ccccc1)[C@H](O)CN(CCC(C)C)C(=O)NC(C)(C)C)C(C)(C)C [Example 14, (2R, 3S)-3-(N-methyl-L-alaninyl-L-tert-butylglycinyl)amino-1-[N-isoamyl-N-(tert-butylcarbamoyl)]amino-4-phenyl-2-butanol] | 8 nM | 0.096 µg/mL | –
